One assay addresses T1, rTR alpha (Rattus norvegicus, UniProt P63059).
T1 construct: made in house; host or cells: rabbit reticulocyte lysate (SP6 transcripts of rbeA12B)
T1 sequence (P63059 1-410 isoform P63059-2): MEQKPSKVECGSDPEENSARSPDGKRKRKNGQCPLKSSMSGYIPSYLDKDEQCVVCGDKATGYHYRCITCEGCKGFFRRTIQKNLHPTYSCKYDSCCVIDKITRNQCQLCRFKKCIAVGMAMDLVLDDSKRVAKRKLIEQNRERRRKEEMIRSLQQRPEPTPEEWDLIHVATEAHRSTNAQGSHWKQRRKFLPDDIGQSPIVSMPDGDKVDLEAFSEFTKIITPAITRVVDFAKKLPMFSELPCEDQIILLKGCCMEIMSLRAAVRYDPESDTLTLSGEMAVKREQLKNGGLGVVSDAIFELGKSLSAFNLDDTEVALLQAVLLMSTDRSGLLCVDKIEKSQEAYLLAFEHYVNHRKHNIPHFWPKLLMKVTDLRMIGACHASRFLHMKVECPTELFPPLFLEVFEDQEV
The experiment in a line: ^125I-T3 binding to in vitro translated rTR alpha (Scatchard and competition). The settings on record: for competition for T3 binding to rTR alpha by excess compound: excess competitor. An excerpt: In vitro translation and thyroid hormone binding of rTR alpha FIG. 69 rTR alpha was transcribed in vitro and translated in a rabbit reticulocyte lysate. […] Lane 1, no added RNA; lane 2, rbeA12, which contains the entire 5′ untranslated region; lane 3, rbeA12B, which contains only 97 bp of 5′ untranslated sequence. […] Samples from rbeA12B programmed lysates were mixed with increasing concentrations of unlabeled thyroid hormone or analogs to compete with labeled hormone. […] In vitro transcription and translation and hormone binding were performed as described (22, 23).
23. For in vitro transcription, the entire EcoRI insert of rbeA12 was cloned into pGEM1 (Promega Biotec). […] For thyroid hormone binding, transcriptions were performed with SP6 polymerase and 5 to 10 micrograms of rbeA12B linearized with SstI. […] Thyroid hormone binding for both the Scatchard and competition analyses were determined in the same manner, except that unlabeled protein was used for the Scatchard analysis. […] Specific hormone binding was determined by adding a 1000-fold excess of unlabeled hormone and assayed by counting radioactivity eluting in the excluded volume from a Sephadex G-25 fine (Pharmacia) 0.9-by 4.0-cm. column.

The target of the next assay is T2, hMR (Homo sapiens, UniProt P08235).
T2 sequence (P08235 1-984): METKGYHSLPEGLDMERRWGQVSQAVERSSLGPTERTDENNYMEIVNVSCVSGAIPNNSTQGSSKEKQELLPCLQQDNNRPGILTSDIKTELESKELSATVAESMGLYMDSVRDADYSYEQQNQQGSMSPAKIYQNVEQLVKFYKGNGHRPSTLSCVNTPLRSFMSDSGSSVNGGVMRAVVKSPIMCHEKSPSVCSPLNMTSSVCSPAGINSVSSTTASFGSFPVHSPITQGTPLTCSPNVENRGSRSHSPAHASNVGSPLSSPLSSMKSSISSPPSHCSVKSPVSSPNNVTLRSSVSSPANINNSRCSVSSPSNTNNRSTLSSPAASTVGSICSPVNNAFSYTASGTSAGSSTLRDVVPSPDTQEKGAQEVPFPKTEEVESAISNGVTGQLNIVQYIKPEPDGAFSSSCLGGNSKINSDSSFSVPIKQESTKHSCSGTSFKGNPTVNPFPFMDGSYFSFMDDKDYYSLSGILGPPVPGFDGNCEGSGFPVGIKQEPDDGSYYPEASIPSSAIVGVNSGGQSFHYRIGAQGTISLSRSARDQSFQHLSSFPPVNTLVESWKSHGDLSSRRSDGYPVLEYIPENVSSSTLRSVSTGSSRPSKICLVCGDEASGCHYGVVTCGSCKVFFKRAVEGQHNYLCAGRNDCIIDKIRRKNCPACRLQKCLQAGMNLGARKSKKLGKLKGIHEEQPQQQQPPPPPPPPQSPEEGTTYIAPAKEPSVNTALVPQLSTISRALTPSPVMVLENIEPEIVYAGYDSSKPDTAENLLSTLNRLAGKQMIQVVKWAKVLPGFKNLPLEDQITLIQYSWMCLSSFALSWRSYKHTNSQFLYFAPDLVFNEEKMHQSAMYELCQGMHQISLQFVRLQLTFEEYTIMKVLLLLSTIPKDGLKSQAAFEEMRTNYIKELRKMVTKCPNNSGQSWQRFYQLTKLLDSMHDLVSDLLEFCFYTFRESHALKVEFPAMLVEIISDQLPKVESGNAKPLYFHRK
The assay can be described thus: [^3H]aldosterone binding and steroid competition in extracts of pRShMR-transfected COS cells. Also noted: expressed in transfected cells; host or cells: COS cells transfected with pRShMR (DEAE-dextran). The settings on record: 1-, 10-, or 100-fold molar excess of unlabeled steroid. The procedure: Ligand specificity of the hMR protein was determined by preparing cytosol extracts from COS cells transfected with pRShMR. Two days after transfection, cells were harvested, and hormone binding was measured by a dextran-treated charcoal assay. […] This provided a measure of the relative affinity of each of these steroids for hMR.
Steroid-binding properties of expressed hMR. FIG. 38 Structure of pRShMR, the hMR expression plasmid (41). […] Each point was assayed in triplicate with 100 micrograms of extract protein in a 200-microliter incubation at 0° C. for 2.5 hours. […] The results of two independent trials representative of these competition experiments are shown. Cold competitor was present in 1-, 10-, or 100-fold molar excess. […] Subconfluent COS cells were transfected by the DEAE-dextran method (42) with 10 micrograms of pRShMR per dish. Cells were maintained for 2 days in DMEM (Dulbecco's modification of Eagle's minimum essential medium) with 5 percent charcoal-treated fetal calf serum, then harvested in […] tris-HCl. (pH 7.8), 10 nM NaCl, 1 mM EDTA, 10 mM Na2MoO4, 5 mM dithiothreitol, antipain (5 microgram/ml), leupeptin (5 microgram/ml), and 500 microM phenylmethylsulfonyl fluoride. After centrifugation at 15,000×g for 10 minutes, extracts were adjusted to 100 mM NaCl and 5 percent glycerol before binding. […] After centrifugation at 15,000×g for 2 minutes at 40C, tritium in supernatant was quantified by liquid scintillation spectrophotometry.

Another assay addresses T3, GR (Homo sapiens, UniProt P04150).
T3 sequence (P04150 1-777): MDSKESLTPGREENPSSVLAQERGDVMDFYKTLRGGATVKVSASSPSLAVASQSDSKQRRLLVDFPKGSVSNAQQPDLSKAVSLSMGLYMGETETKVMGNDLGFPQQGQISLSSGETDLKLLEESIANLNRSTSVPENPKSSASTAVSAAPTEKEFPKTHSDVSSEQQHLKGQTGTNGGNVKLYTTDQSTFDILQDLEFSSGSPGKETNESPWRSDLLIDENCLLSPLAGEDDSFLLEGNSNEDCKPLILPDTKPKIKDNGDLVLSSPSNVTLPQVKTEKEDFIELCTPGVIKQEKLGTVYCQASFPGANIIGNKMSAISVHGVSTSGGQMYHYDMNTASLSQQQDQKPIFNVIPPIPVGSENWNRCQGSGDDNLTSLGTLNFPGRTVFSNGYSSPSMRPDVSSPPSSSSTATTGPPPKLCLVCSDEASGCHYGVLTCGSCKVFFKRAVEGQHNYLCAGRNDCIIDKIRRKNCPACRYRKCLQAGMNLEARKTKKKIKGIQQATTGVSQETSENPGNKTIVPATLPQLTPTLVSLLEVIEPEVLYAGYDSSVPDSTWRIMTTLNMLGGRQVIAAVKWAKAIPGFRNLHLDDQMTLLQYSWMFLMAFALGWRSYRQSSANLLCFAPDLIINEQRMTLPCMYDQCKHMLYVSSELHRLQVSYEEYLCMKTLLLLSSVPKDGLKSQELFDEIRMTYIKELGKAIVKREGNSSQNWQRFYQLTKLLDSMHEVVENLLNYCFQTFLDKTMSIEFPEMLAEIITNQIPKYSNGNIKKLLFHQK
The assay can be described thus: hGR functional assay: CAT activity in CV-1 cells cotransfected with pRShGR alpha (or mutant) and pMTVCAT. Also noted: The expression vector linking the RSV LTR to full length hGR cDNA (pRShGR alpha) was designed to obtain high levels of expression; expressed in transfected cells; host or cells: CV-1 monkey kidney cells, cotransfected with pMTVCAT. The format is cell-based. The conditions noted are these: 100 nM steroid, cotransfected CV-1 cells. From the text:
The assay system and strategy used to study the expression of functional hGR from the cloned cDNA (See Experimental Section I) is shown in FIG. 11. In these experiments, a glucocorticoid-responsive promoter/enhancer element linked to a reporter gene was introduced into a receptor-negative cell. […] For our assay, we chose to use the MTV LTR fused to the sequence coding for chloramphenicol acetyltransferase (CAT) (EC2.3.1.28). […] Cotransfection of pMTVCAT (or pGMCAT) with a receptor expression plasmid provides functional receptors that allow induction of CAT activity upon treatment of the transfected cells with glucocorticoid hormone. In addition, biochemical studies such as steroid binding activity and Western blot analysis of the expressed receptors can be performed simultaneously.
The cells are then cultured in the presence or absence of hormone. CV-1 cells were used to monitor induction of CAT activity, and COS cells were used to measure steroid-binding capacity and the expression of hGR protein.
CAT assays were performed as indicated in Experimental Procedures (See Section II. F.). C, chloramphenicol; AC, 3-acetylchloramphenicol.
The levels of CAT activity were plotted as percentages of the maximal response observe in a particular experiment.
Each plasmid preparation used for transfection was purified using two consecutive CsCl-EtBr equilibrium gradients. […]

Entries after “also recorded” stand apart in the source; their conditions may differ.

In the case of `N[C@@H](Cc1cc(I)c(Oc2cc(I)c(O)c(I)c2)c(I)c1)C(=O)O` [L-thyroxine], on rTR alpha (in vitro translated rTR alpha), the “competition for ^125I-T3 binding to rTR alpha (in words)” value is on record as “same characteristic affinities”. In the case of `C[C@]12C[C@H](O)[C@H]3[C@@H](CCC4=CC(=O)CC[C@@]43C)[C@@H]1CC[C@@H]2C(=O)CO` [corticosterone], the “relative affinity for hMR by competition with 5 nM [^3H]aldosterone (in words)” value on hMR was “very similar affinities; also recorded: compete as effectively as aldosterone itself”. Still for that read-out and setting: under `C[C@]12CC[C@H]3[C@@H](CCC4=CC(=O)CC[C@@]43C)[C@@H]1CC[C@@H]2C(=O)CO` [deoxycorticosterone] stands “very similar affinities; also recorded: compete as effectively as aldosterone itself”. Take `CC(=O)[C@H]1CC[C@H]2[C@@H]3CCC4=CC(=O)CC[C@]4(C)[C@H]3CC[C@]12C` [progesterone]: on rTR alpha, the “competition for T3 binding to rTR alpha by excess compound” value (from here on “competition for T3 binding to rTR alpha”) is reported as “no competition”.

For `CC(=O)S[C@@H]1CC2=CC(=O)CC[C@]2(C)[C@H]2CC[C@@]3(C)[C@@H](CC[C@@]34CCC(=O)O4)[C@H]12` [spironolactone], on hMR, the “relative affinity for hMR by competition with 5 nM [^3H]aldosterone (in words)” value is reported as “weaker binding affinity”.

Turning to `C[C@]12CC[C@H]3[C@@H](CCC4=CC(=O)CC[C@@]43C)[C@@H]1CC[C@@H]2O` [testosterone], the “competition for T3 binding to rTR alpha” value on rTR alpha is “no competition”. Besides, on GR, the “induction of CAT activity by steroid” value is on record as “failed to induce CAT activity”.

Turning to `C=C1CC[C@H](O)C/C1=C/C=C1\CCC[C@]2(C)[C@@H]([C@H](C)CCCC(C)C)CC[C@@H]12` [vitamin D3], the “competition for T3 binding to rTR alpha” value on rTR alpha is “no competition”.

The record behind these values is US6806359B1, “Hormone receptor compositions and methods” (The Salk Institute for Biological Studies, priority 1986, dated 2004).
